Three molecules from patent US20240279298A1 (BEIJING TUO JIE BIOPHARMACEUTICAL CO. LTD., priority 2021, published 2024) can be followed below.

pEC50: −log10 of the molar value. ≈ marks a conversion by molar mass, not a printed value. Where a SMILES comes first, the peptide text is derived from it. [ ]: non-standard residue; d: D form. Aib = CC(C)(N)C(=O)O

The target in one data set is T1, human GIPR (Homo sapiens, UniProt P48546).
T1 construct: expressed in transfected cells
T1 sequence (P48546 22-466): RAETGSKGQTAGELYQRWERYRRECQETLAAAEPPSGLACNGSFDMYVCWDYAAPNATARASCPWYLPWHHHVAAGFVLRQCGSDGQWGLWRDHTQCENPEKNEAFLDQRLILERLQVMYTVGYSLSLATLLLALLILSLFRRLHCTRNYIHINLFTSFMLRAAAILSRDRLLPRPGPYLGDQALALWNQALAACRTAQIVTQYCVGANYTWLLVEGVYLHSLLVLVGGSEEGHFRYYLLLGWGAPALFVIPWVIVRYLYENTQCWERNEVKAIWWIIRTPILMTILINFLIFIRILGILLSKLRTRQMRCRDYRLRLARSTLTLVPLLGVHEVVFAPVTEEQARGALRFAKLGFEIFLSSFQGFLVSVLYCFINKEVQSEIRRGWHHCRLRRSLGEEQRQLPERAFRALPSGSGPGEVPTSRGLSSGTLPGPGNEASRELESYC
Kind of data set: Agonist activity assay for GIPR (cAMP HTRF). To be noted: for pEC50: CHO-K1/GIPR cell line, cAMP. The class given is cell-based. On the procedure: (§1) The activation of GCGR by related compounds will stimulate the formation of cyclic adenosine monophosphate (cAMP) in cells. Thus, the receptor activity can be monitored by cAMP production in proper cells expressing the receptor.
(§2) Agonist activity assay for GCGR: Cryopreserved stable CHO-K1/GCGR/CRE-Luc cells were taken from a liquid nitrogen tank, thawed in a 37° C. water bath, resuspended in DMEM/F12 medium (Sigma Cat #D8437), centrifuged, and seeded into T75 culture flasks. The cells were passaged at least once for subsequent tests. Before testing, the cells were trypsinized, centrifuged, washed once, and resuspended in serum-free DMEM/F12 medium. The cell density was adjusted, and the cells were plated in a 96-well plate at a density of 2,500 cells/5 μL/well. A 1×buffer solution in Cisbio-cAMP-Gs Dynamic kit was prepared, and IBMX was added at a final concentration of 0.5 mM. 5 μL of polypeptide serially diluted by buffer was added into each well, and the plate was shaken gently for mixing and incubated for 30 minutes at 37° C. cAMP-d2 and Anti-cAMP-Eu^3+-Cryptate were 20-fold diluted with cAMP Lysis and detection buffer respectively and mixed well. 5 μL of diluted cAMP-d2 solution and 5 μL of diluted Anti-cAMP-Eu^3+-Cryptate solution were sequentially added into each well. The mixture was mixed well by moderate vibration, and incubated for 1 hour at room temperature away from light.
Agonist activity assay for GIPR: The method differed from the method described above for the agonist activity assay for GCGR in that a stable CHO-K1/GIPR cell line was used, and the cell density was 3,000 cells/5 μL/well.

Data set [1] is described as follows: Maximum solubility in phosphate buffer pH 7.4. The format is physicochemical. To be noted: phosphate buffer pH 7.4, room temperature.
Another data set has as its target T2, human GLP-1R (Homo sapiens, UniProt P43220).
T2 construct: expressed in transfected cells
Kind of data set: Agonist activity assay for GLP-1R (cAMP HTRF). The class given is cell-based. On the procedure: as §1, §2
Agonist activity assay for GLP-1R: The method differed from the method described above for the agonist activity assay for GCGR in that a stable CHO-GLP-1R cell line was used.

The target in data set [2] is T3, human glucagon receptor (GCGR) (Homo sapiens, UniProt P47871).
T3 construct: expressed in transfected cells
The data set can be described thus: Agonist activity assay for GCGR (cAMP HTRF). To be noted: normalized by the activity of the native glucagon. The class given is cell-based. The protocol:
The activation of GCGR by related compounds will stimulate the formation of cyclic adenosine monophosphate (cAMP) in cells. Thus, the receptor activity can be monitored by cAMP production in proper cells expressing the receptor. […] The cells were passaged at least once for subsequent tests. Before testing, the cells were trypsinized, centrifuged, washed once, and resuspended in serum-free DMEM/F12 medium. The cell density was adjusted, and the cells were plated in a 96-well plate at a density of 2,500 cells/5 μL/well. […] The mixture was mixed well by moderate vibration, and incubated for 1 hour at room temperature away from light.
(In general: Time-resolved FRET reads energy transfer from a long-lived donor to a nearby acceptor.)

Data set [3] in a line: Chemical stability in phosphate buffer (UPLC purity). The class given is physicochemical. To be noted: phosphate buffer pH 7.4, 1 mg/mL; for Purity Day 0: day 0 (normalization).
Method: The compound purity was calculated by the percentage area of the main peak in the chromatograms relative to the total area of all integrated peaks, normalized by the purity of the sample on day 0 for the purity.
The target of data set [4] is human glucose-dependent insulinotropic polypeptide receptor (GIPR) (human) (UniProt P48546). Kind of data set: cell-based or functional assay.

T3 sequence (P47871 26-477): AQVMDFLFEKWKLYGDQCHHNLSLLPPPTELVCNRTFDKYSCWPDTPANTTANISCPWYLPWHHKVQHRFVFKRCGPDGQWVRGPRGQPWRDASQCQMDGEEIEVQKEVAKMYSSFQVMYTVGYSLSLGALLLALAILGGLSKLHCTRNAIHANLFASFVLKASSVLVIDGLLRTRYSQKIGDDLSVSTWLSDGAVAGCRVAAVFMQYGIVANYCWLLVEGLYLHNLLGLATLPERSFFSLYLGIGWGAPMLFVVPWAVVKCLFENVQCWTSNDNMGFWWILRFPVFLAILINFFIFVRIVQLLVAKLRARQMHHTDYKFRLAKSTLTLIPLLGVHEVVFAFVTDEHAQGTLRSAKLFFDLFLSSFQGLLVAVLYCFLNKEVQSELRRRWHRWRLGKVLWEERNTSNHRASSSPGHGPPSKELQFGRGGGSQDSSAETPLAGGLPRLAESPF
T2 sequence (P43220 24-463): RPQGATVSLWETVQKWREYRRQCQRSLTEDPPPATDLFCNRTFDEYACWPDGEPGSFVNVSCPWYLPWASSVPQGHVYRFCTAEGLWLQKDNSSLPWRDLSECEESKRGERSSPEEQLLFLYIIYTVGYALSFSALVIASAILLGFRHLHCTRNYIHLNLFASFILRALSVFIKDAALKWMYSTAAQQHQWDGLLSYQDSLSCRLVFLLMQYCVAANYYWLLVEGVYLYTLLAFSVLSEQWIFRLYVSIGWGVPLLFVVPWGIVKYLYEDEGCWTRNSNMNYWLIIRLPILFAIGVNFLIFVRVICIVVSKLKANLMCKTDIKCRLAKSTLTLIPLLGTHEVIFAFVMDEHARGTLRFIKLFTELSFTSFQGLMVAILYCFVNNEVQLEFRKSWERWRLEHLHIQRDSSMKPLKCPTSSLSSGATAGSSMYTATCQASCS

One may read the pEC50 as −log10 of the EC50, conventionally taken in molar units. As usually defined, the solubility is how much of the substance goes into solution per volume. As for `CC(C)C[C@H](NC(=O)[C@H](Cc1c[nH]c2ccccc12)NC(=O)[C@H](CCC(N)=O)NC(=O)[C@@H](NC(=O)[C@H](Cc1ccccc1)NC(=O)[C@H](CCC(=O)O)NC(=O)[C@H](CCC(N)=O)NC(=O)[C@H](C)NC(=O)[C@H](CCCNC(=N)N)NC(=O)C(C)(C)NC(=O)[C@@H](NC(=O)[C@H](CC(=O)O)NC(=O)[C@H](CC(C)C)NC(=O)[C@H](Cc1ccc(O)cc1)NC(=O)[C@H](CCCCN)NC(=O)[C@H](CO)NC(=O)[C@H](Cc1ccc(O)cc1)NC(=O)[C@H](CC(=O)O)NC(=O)[C@H](CO)NC(=O)[C@@H](NC(=O)[C@H](Cc1ccccc1)NC(=O)[C@@H](NC(=O)CNC(=O)[C@H](CCC(N)=O)NC(=O)[C@H](CO)NC(=O)[C@@H](N)Cc1c[nH]cn1)[C@@H](C)O)[C@@H](C)O)[C@@H](C)O)C(C)C)C(=O)N[C@@H](CCC(=O)O)C(=O)N[C@@H](CO)C(=O)N[C@H](C(=O)O)[C@@H](C)O` [Compound 39] (H-HSQGTFTSDYSKYLDT[Aib]RAQEFVQWLEST-OH), at human GIPR, the pEC50 is less than 7.00 and the “GIPR % Activity relative to native GIP” value is recorded as less than 0.0700%. This molecule came in with a solubility at 5 min in data set [1] greater than 4790 µg/mL. For the same molecule, the “GLP-1R % Activity relative to native GLP-1” value on human GLP-1R was determined as 0.212%. Further, the Relative activity in data set [2] came to 268%. In data set [3] (4° C.), the “Purity Day 7” value was 97.24%, the “Purity Day 14” value is 97.45%, the “Purity Day 21” value is reported as 95.71% and the “Purity Day 28” value amounted to 94.88%. Further, in data set [3] (25° C.), the “Purity Day 7” value is 94.64%, the “Purity Day 14” value stood at 93.86%, the “Purity Day 21” value was determined as 91.35% and the “Purity Day 28” value is reported as 91.85%. The “Purity Day 0” value in data set [3] is 100.00%.
Turning to “human GIP (1-42) (from UniProt P09681 52-93) (ligand)”, in data set [4], the GIPR % Activity relative to native GIP, cAMP HTRF worked out at 100% and the GIPR EC50 (nM), cAMP HTRF in CHO-K1/GIPR cells was determined as 0.0652 nM.
Take `CC(C)C[C@H](NC(=O)[C@H](Cc1c[nH]c2ccccc12)NC(=O)[C@H](CCC(N)=O)NC(=O)[C@@H](NC(=O)[C@H](Cc1ccccc1)NC(=O)[C@H](CCC(=O)O)NC(=O)[C@H](CCC(N)=O)NC(=O)[C@H](C)NC(=O)[C@H](CCCNC(=N)N)NC(=O)C(C)(C)NC(=O)[C@@H](NC(=O)[C@H](CC(=O)O)NC(=O)[C@H](CC(C)C)NC(=O)[C@H](Cc1ccc(O)cc1)NC(=O)[C@H](CCCCN)NC(=O)[C@H](CO)NC(=O)[C@H](Cc1ccc(O)cc1)NC(=O)[C@H](CC(=O)O)NC(=O)[C@H](CO)NC(=O)[C@@H](NC(=O)[C@H](Cc1ccccc1)NC(=O)[C@@H](NC(=O)CNC(=O)[C@H](CCC(N)=O)NC(=O)[C@H](CO)NC(=O)[C@@H](N)Cc1c[nH]cn1)[C@@H](C)O)[C@@H](C)O)C(C)C)C(C)C)C(=O)N[C@@H](CCC(=O)O)C(=O)N[C@@H](CO)C(=O)N[C@H](C(=O)O)[C@@H](C)O` [Compound 41] (H-HSQGTFTSDYSKYLDV[Aib]RAQEFVQWLEST-OH): at human GIPR, the pEC50 is less than 7.00 and the “GIPR % Activity relative to native GIP” value is on record as less than 0.0700%. Further, in data set [1], the concentration in solution (solubility at 5 min) was 2560 µg/mL (≈ 751 µM). Besides, on human GLP-1R, the “GLP-1R % Activity relative to native GLP-1” value came to 0.231%. Moreover, the Relative activity in data set [2] was 333%. In data set [3] (4° C.), the “Purity Day 7” value is 98.77%, the “Purity Day 14” value is reported as 93.35%, the “Purity Day 21” value came to 89.45% and the “Purity Day 28” value is on record as 89.12%. Further, in data set [3] (25° C.), the “Purity Day 7” value is 82.25%, the “Purity Day 14” value came out at 68.13%, the “Purity Day 21” value is recorded as 49.04% and the “Purity Day 28” value is given as 33.47%. For the same molecule, the “Purity Day 0” value in data set [3] was 100.00%.
